Consider 1 compound from patent US9267129B2, “Compositions and methods for conferring herbicide resistance” (BEN-GURION UNIVERSITY OF THE NEGEV RESEARCH AND DEVELOPMENT …, priority 2011, dated 2016).

In one test the target is T1, PiAHAS mutant W605S (Lobosphaera incisa, UniProt I3VJH2, W604S).
T1 sequence (I3VJH2 with tags, fused parts or gaps W604S): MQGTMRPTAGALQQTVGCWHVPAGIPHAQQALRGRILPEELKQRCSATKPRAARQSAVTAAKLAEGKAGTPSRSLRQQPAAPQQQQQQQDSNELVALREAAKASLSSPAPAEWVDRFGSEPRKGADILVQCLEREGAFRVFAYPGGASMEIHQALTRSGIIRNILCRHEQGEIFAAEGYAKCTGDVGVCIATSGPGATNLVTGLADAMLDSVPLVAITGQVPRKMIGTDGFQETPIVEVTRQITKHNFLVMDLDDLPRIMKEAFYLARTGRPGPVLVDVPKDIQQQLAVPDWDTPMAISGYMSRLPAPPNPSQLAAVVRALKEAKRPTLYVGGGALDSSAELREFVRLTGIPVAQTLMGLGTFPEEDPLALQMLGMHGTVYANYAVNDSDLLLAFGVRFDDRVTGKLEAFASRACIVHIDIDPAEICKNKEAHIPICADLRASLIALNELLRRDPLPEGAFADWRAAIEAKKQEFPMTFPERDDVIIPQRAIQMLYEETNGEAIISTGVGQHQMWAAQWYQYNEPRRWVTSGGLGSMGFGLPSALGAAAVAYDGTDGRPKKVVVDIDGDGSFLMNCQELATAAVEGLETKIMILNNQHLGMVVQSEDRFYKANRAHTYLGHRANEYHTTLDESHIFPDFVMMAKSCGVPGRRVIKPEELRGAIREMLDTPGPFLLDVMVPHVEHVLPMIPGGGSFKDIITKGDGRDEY
The test is described as follows: PiAHAS in vitro enzyme assay, inhibition by SMM (mutant). Format: biochemical, Parietochloris incisa. The conditions noted are these: even at high concentrations of 200 μM. The method, then: (§1) To overexpress the hexahistidine (6xHis)-tagged PiAHAS genes in E. coli strain JM109, plasmids pQE-WT and pQE-MUT were used. These plasmids were constructed by inserting the BamHI-SalI fragment containing the cloned PiAHAS wt and mutant genes into plasmid pQE30 (Qiagen, Hilden, Germany). These plasmids express PiAHAS fused at its N-terminus to the pQE30 6xHis leader. pQE-WT and pQE-MUT were transformed into E. coli for expression. […] The AHAS catalytic activity was determined as previously described (Bar-Ilan A et al. Binding and activation of thiamin diphosphate in acetohydroxyacid synthase. Biochemistry (N.Y.) 2001, 40, 11946-11954). […] Km for pyruvate and Ki for SMM were determined by varying the concentration of the factor in question. Protein concentration was determined by the dye-binding method of Bradford (Bradford MM. A rapid and sensitive method for the quantitation of microgram quantities of protein utilizing the principle of protein-dye binding. Anal. Biochem. 1976, 72, 248-254), with bovine serum albumin as standard. […]
(§2) The Ki was determined to be >30×106, 7 orders of magnitude higher than that of the wild type.

In test [1] the target is T2, PiAHAS wild-type (Parietochloris incisa (Lobosphaera incisa), UniProt I3VJH2, D350G/R415C).
T2 sequence (I3VJH2 1-707 D350G/R415C): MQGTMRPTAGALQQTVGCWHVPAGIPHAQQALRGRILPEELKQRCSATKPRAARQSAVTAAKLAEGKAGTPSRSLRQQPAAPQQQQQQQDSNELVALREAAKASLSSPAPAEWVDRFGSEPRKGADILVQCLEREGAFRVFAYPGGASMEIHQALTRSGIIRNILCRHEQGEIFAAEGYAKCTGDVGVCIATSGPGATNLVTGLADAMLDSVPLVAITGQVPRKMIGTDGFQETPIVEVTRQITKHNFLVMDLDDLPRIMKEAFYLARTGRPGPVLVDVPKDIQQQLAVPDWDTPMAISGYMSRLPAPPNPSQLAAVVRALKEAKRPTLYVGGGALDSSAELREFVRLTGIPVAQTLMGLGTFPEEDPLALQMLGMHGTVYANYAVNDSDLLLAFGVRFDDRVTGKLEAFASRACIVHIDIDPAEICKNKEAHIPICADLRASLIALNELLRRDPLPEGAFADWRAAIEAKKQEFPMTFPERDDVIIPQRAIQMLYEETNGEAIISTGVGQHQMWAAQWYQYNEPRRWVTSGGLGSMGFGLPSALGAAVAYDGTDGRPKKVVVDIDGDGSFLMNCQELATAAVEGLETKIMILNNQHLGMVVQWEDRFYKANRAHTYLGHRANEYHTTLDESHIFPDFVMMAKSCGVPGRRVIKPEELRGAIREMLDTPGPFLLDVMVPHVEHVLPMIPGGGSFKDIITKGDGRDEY
As to the kind of experiment: PiAHAS in vitro enzyme assay, inhibition by SMM (wild type). The class given is biochemical. As to conditions: wild type; very low concentration of SMM. Here is the method:
as §1, §2

Test [2] addresses T3, PiAHAS wild-type (Parietochloris incisa (Lobosphaera incisa), UniProt I3VJH2).
T3 sequence (I3VJH2 1-707 D350G/R415C): T2 sequence (I3VJH2 1-707 D350G/R415C)
Described as above. The conditions noted are these: wild-type AHAS; pyruvate 100 mM; 37° C., pH 7.6. The class given is biochemical. Here is the method:
as §1, §2

In the case of `COC(=O)c1ccccc1S(=O)(=O)NC(=O)Nc1nc(C)cc(C)n1` [SMM, sulfometuron methyl], the “inhibition of enzyme by SMM” value on PiAHAS mutant W605S was “strong resistance”; at PiAHAS wild-type [1], “strongly inhibited”. Also, the affinity on PiAHAS wild-type [2], expressed as Ki, was 150 nM.
